Laboratory results from ChEMBL document CHEMBL3885861, “Open TG-GATES”.

Species: Rattus norvegicus
Assay: Open TG-GATES - Regimen: Single
Format: toxicity, organism-based, Sprague-Dawley
Design: regimen Single, gender Male, age 6 weeks
Conditions: in vivo, po, route gavage; for APTT / Bas / Eos / Fbg / Hb / Ht / Lym / MCH / MCHC / MCV / Mono / Neu / PT / Plat / RBC / Ret / WBC: tissue Blood; for KIDNEY_L / KIDNEY_R / KIDNEY_TOTAL: tissue Kidney; for LIVER: tissue Liver; for A/G / ALP / ALT / AST / BUN / CRE / Ca / Cl / DBIL / GLC / IP / K / LDH / Na / PL / RALB / TBIL / TC / TG / TP / gamma-GTP: tissue Plasma
[1] = 150 mg/kg, 3 h, dose level Middle
[2] = 150 mg/kg, 6 h, dose level Middle
[3] = 150 mg/kg, 9 h, dose level Middle
[4] = 150 mg/kg, 24 h, dose level Middle
[5] = 500 mg/kg, 3 h, dose level High
[6] = 500 mg/kg, 6 h, dose level High
[7] = 500 mg/kg, 9 h, dose level High
[8] = 500 mg/kg, 24 h, dose level High

CN1C(=O)OC(C)(C)C1=O [TRIMETHADIONE]
TERMINAL_BW [1]: 208.1 g
APTT [1]: 15.9 s
Bas [1]: 0%
Eos [1]: 0.6%
Fbg [1]: 262.2 mg/dL
Hb [1]: 13.4 g/dL
Ht [1]: 40.4%
Lym [1]: 78.8%
MCH [1]: 21.4 pg
MCHC [1]: 33.2%
MCV [1]: 64.6 fL
Mono [1]: 2.4%
Neu [1]: 17.2%
PT [1]: 13.5 s
Plat [1]: 114.9 x10_4/uL
RBC [1]: 625.4 x10_4/ul
Ret [1]: 7.7%
WBC [1]: 81.5 x10_2/uL
KIDNEY_L [1]: 0.9 g
KIDNEY_R [1]: 0.9 g
KIDNEY_TOTAL [1]: 1.8 g
LIVER [1]: 9.1 g
A/G [1]: 0.9
ALP [1]: 1472.2 IU/L
ALT [1]: 38.4 IU/L
AST [1]: 70.6 IU/L
BUN [1]: 10 mg/dL
CRE [1]: 0.2 mg/dL
Ca [1]: 10.6 mg/dL
Cl [1]: 108 meq/L
DBIL [1]: 0.004 mg/dL
GLC [1]: 177.8 mg/dL
IP [1]: 8.3 mg/dL
K [1]: 4.2 meq/L
LDH [1]: 106 IU/L
Na [1]: 141 meq/L
PL [1]: 144.4 mg/dL
RALB [1]: 2.5 g/dL
TBIL [1]: 0.056 mg/dL
TC [1]: 75 mg/dL
TG [1]: 82 mg/dL
TP [1]: 5.3 g/dL
gamma-GTP [1]: 1 IU/L
TERMINAL_BW [2]: 209 g
APTT [2]: 16.3 s
Bas [2]: 0.2%
Eos [2]: 1%
Fbg [2]: 267 mg/dL
Hb [2]: 13.4 g/dL
Ht [2]: 40.1%
Lym [2]: 80.8%
MCH [2]: 21.7 pg
MCHC [2]: 33.3%
MCV [2]: 65.3 fL
Mono [2]: 2.4%
Neu [2]: 15.2%
PT [2]: 13.8 s
Plat [2]: 126.8 x10_4/uL
RBC [2]: 614.2 x10_4/ul
Ret [2]: 8.4%
WBC [2]: 94.5 x10_2/uL
KIDNEY_L [2]: 0.9 g
KIDNEY_R [2]: 0.9 g
KIDNEY_TOTAL [2]: 1.8 g
LIVER [2]: 8.6 g
A/G [2]: 0.9
ALP [2]: 1642.2 IU/L
ALT [2]: 36.2 IU/L
AST [2]: 72.2 IU/L
BUN [2]: 8.6 mg/dL
CRE [2]: 0.2 mg/dL
Ca [2]: 10.6 mg/dL
Cl [2]: 107.4 meq/L
DBIL [2]: 0.004 mg/dL
GLC [2]: 175.8 mg/dL
IP [2]: 8.9 mg/dL
K [2]: 4.3 meq/L
LDH [2]: 79.4 IU/L
Na [2]: 140.6 meq/L
PL [2]: 139.4 mg/dL
RALB [2]: 2.4 g/dL
TBIL [2]: 0.062 mg/dL
TC [2]: 76 mg/dL
TG [2]: 54.6 mg/dL
TP [2]: 5.2 g/dL
gamma-GTP [2]: 1 IU/L
TERMINAL_BW [3]: 204.4 g
APTT [3]: 17.8 s
Bas [3]: 0%
Eos [3]: 1%
Fbg [3]: 276 mg/dL
Hb [3]: 13.2 g/dL
Ht [3]: 39.8%
Lym [3]: 76%
MCH [3]: 21.7 pg
MCHC [3]: 33.2%
MCV [3]: 65.5 fL
Mono [3]: 2.2%
Neu [3]: 20.8%
PT [3]: 14 s
Plat [3]: 119.5 x10_4/uL
RBC [3]: 608.8 x10_4/ul
Ret [3]: 8.3%
WBC [3]: 84 x10_2/uL
KIDNEY_L [3]: 0.9 g
KIDNEY_R [3]: 0.9 g
KIDNEY_TOTAL [3]: 1.8 g
LIVER [3]: 7.8 g
A/G [3]: 0.9
ALP [3]: 1417.8 IU/L
ALT [3]: 33.8 IU/L
AST [3]: 72.2 IU/L
BUN [3]: 7.2 mg/dL
CRE [3]: 0.2 mg/dL
Ca [3]: 10.3 mg/dL
Cl [3]: 109.8 meq/L
DBIL [3]: 0 mg/dL
GLC [3]: 164.4 mg/dL
IP [3]: 9.9 mg/dL
K [3]: 3.9 meq/L
LDH [3]: 118.2 IU/L
Na [3]: 142.4 meq/L
PL [3]: 137.4 mg/dL
RALB [3]: 2.5 g/dL
TBIL [3]: 0.066 mg/dL
TC [3]: 74.4 mg/dL
TG [3]: 32.4 mg/dL
TP [3]: 5.3 g/dL
gamma-GTP [3]: 1 IU/L
TERMINAL_BW [4]: 217.7 g
APTT [4]: 20.8 s
Bas [4]: 0%
Eos [4]: 1%
Fbg [4]: 279.8 mg/dL
Hb [4]: 13.8 g/dL
Ht [4]: 41.1%
Lym [4]: 78.2%
MCH [4]: 21.7 pg
MCHC [4]: 33.5%
MCV [4]: 64.9 fL
Mono [4]: 2.6%
Neu [4]: 18%
PT [4]: 13.4 s
Plat [4]: 112.6 x10_4/uL
RBC [4]: 634.2 x10_4/ul
Ret [4]: 6.8%
WBC [4]: 104 x10_2/uL
KIDNEY_L [4]: 0.9 g
KIDNEY_R [4]: 0.9 g
KIDNEY_TOTAL [4]: 1.9 g
LIVER [4]: 9.6 g
A/G [4]: 0.9
ALP [4]: 2022.8 IU/L
ALT [4]: 50 IU/L
AST [4]: 81 IU/L
BUN [4]: 15.4 mg/dL
CRE [4]: 0.2 mg/dL
Ca [4]: 10.7 mg/dL
Cl [4]: 104.6 meq/L
DBIL [4]: 0.006 mg/dL
GLC [4]: 171.6 mg/dL
IP [4]: 7.9 mg/dL
K [4]: 4.3 meq/L
LDH [4]: 116.2 IU/L
Na [4]: 143 meq/L
PL [4]: 148.2 mg/dL
RALB [4]: 2.6 g/dL
TBIL [4]: 0.056 mg/dL
TC [4]: 76.4 mg/dL
TG [4]: 83 mg/dL
TP [4]: 5.6 g/dL
gamma-GTP [4]: 1 IU/L
TERMINAL_BW [5]: 212 g
APTT [5]: 16.8 s
Bas [5]: 0%
Eos [5]: 0.8%
Fbg [5]: 267.8 mg/dL
Hb [5]: 12.7 g/dL
Ht [5]: 38.3%
Lym [5]: 79.2%
MCH [5]: 21.5 pg
MCHC [5]: 33.2%
MCV [5]: 64.8 fL
Mono [5]: 2.4%
Neu [5]: 17%
PT [5]: 14 s
Plat [5]: 113.4 x10_4/uL
RBC [5]: 591.4 x10_4/ul
Ret [5]: 8.8%
WBC [5]: 80.3 x10_2/uL
KIDNEY_L [5]: 1 g
KIDNEY_R [5]: 0.9 g
KIDNEY_TOTAL [5]: 1.9 g
LIVER [5]: 9.1 g
A/G [5]: 0.9
ALP [5]: 1375.2 IU/L
ALT [5]: 39.6 IU/L
AST [5]: 70.6 IU/L
BUN [5]: 8.6 mg/dL
CRE [5]: 0.2 mg/dL
Ca [5]: 10.5 mg/dL
Cl [5]: 107.2 meq/L
DBIL [5]: 0.002 mg/dL
GLC [5]: 174.2 mg/dL
IP [5]: 8.8 mg/dL
K [5]: 4.2 meq/L
LDH [5]: 108 IU/L
Na [5]: 139.4 meq/L
PL [5]: 150.4 mg/dL
RALB [5]: 2.4 g/dL
TBIL [5]: 0.058 mg/dL
TC [5]: 84.2 mg/dL
TG [5]: 60.6 mg/dL
TP [5]: 5.2 g/dL
gamma-GTP [5]: 1 IU/L
TERMINAL_BW [6]: 209.4 g
APTT [6]: 16.1 s
Bas [6]: 0.2%
Eos [6]: 1.2%
Fbg [6]: 280.2 mg/dL
Hb [6]: 12.9 g/dL
Ht [6]: 38.9%
Lym [6]: 79.6%
MCH [6]: 21.1 pg
MCHC [6]: 33.1%
MCV [6]: 63.7 fL
Mono [6]: 1.6%
Neu [6]: 17%
PT [6]: 14.1 s
Plat [6]: 121.7 x10_4/uL
RBC [6]: 611.6 x10_4/ul
Ret [6]: 8.2%
WBC [6]: 94.3 x10_2/uL
KIDNEY_L [6]: 1 g
KIDNEY_R [6]: 0.9 g
KIDNEY_TOTAL [6]: 1.9 g
LIVER [6]: 8.5 g
A/G [6]: 0.9
ALP [6]: 1302 IU/L
ALT [6]: 31 IU/L
AST [6]: 66.8 IU/L
BUN [6]: 8.2 mg/dL
CRE [6]: 0.2 mg/dL
Ca [6]: 10.6 mg/dL
Cl [6]: 107.2 meq/L
DBIL [6]: 0 mg/dL
GLC [6]: 173.2 mg/dL
IP [6]: 9.4 mg/dL
K [6]: 4.1 meq/L
LDH [6]: 72 IU/L
Na [6]: 141 meq/L
PL [6]: 139.2 mg/dL
RALB [6]: 2.4 g/dL
TBIL [6]: 0.058 mg/dL
TC [6]: 80.2 mg/dL
TG [6]: 35.8 mg/dL
TP [6]: 5.2 g/dL
gamma-GTP [6]: 1.4 IU/L
TERMINAL_BW [7]: 209 g
APTT [7]: 15.6 s
Bas [7]: 0%
Eos [7]: 0.8%
Fbg [7]: 253.2 mg/dL
Hb [7]: 12.6 g/dL
Ht [7]: 37.9%
Lym [7]: 75.2%
MCH [7]: 21.4 pg
MCHC [7]: 33.4%
MCV [7]: 64.3 fL
Mono [7]: 1.8%
Neu [7]: 21.8%
PT [7]: 14.5 s
Plat [7]: 117.7 x10_4/uL
RBC [7]: 589.4 x10_4/ul
Ret [7]: 8%
WBC [7]: 81.5 x10_2/uL
KIDNEY_L [7]: 1 g
KIDNEY_R [7]: 1 g
KIDNEY_TOTAL [7]: 2 g
LIVER [7]: 8.2 g
A/G [7]: 0.9
ALP [7]: 1539.2 IU/L
ALT [7]: 29 IU/L
AST [7]: 65.4 IU/L
BUN [7]: 7.6 mg/dL
CRE [7]: 0.2 mg/dL
Ca [7]: 10.2 mg/dL
Cl [7]: 105.8 meq/L
DBIL [7]: 0 mg/dL
GLC [7]: 158.4 mg/dL
IP [7]: 10.3 mg/dL
K [7]: 3.8 meq/L
LDH [7]: 69.4 IU/L
Na [7]: 140.6 meq/L
PL [7]: 127.8 mg/dL
RALB [7]: 2.4 g/dL
TBIL [7]: 0.056 mg/dL
TC [7]: 67.4 mg/dL
TG [7]: 28.2 mg/dL
TP [7]: 5.1 g/dL
gamma-GTP [7]: 1.2 IU/L
TERMINAL_BW [8]: 215.3 g
APTT [8]: 17.7 s
Bas [8]: 0%
Eos [8]: 0.8%
Fbg [8]: 286.8 mg/dL
Hb [8]: 13.6 g/dL
Ht [8]: 40.5%
Lym [8]: 78%
MCH [8]: 21.1 pg
MCHC [8]: 33.6%
MCV [8]: 62.7 fL
Mono [8]: 2.6%
Neu [8]: 18.4%
PT [8]: 13.8 s
Plat [8]: 129.1 x10_4/uL
RBC [8]: 646.2 x10_4/ul
Ret [8]: 6.9%
WBC [8]: 101.5 x10_2/uL
KIDNEY_L [8]: 0.9 g
KIDNEY_R [8]: 1 g
KIDNEY_TOTAL [8]: 1.9 g
LIVER [8]: 9.7 g
A/G [8]: 0.9
ALP [8]: 1799.8 IU/L
ALT [8]: 49.4 IU/L
AST [8]: 82.2 IU/L
BUN [8]: 13 mg/dL
CRE [8]: 0.2 mg/dL
Ca [8]: 10.6 mg/dL
Cl [8]: 101.6 meq/L
DBIL [8]: 0.006 mg/dL
GLC [8]: 165.2 mg/dL
IP [8]: 7.4 mg/dL
K [8]: 3.9 meq/L
LDH [8]: 96.8 IU/L
Na [8]: 144 meq/L
PL [8]: 137.2 mg/dL
RALB [8]: 2.6 g/dL
TBIL [8]: 0.046 mg/dL
TC [8]: 75.6 mg/dL
TG [8]: 99.4 mg/dL
TP [8]: 5.6 g/dL
gamma-GTP [8]: 1 IU/L
